US20250145606A1 (Arcus Biosciences, Inc., priority 2023, published 2025)
Read-outs that look alike come from different tables or passages of the source.

Key:
[1] = biological target: PDGFRα (Homo sapiens (Human), UniProt P16234); assay: Inhibition of PDGFRα kinase activity (HTRF KinEASE-TK); conditions: biochemical, HTRF KinEASE-TK
Method in brief: (§1)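 Human kinases were preincubated 1 h at rt with a 22-point 1:2 compound titration, then run 120 min at rt with biotinylated TK peptide and ATP (2× mix: c-Kit 16 μM, PDGFRα 1 μM, PDGFRβ 40 μM, CSF1R 20 μM). Phosphopeptide was read by HTRF TR-FRET (665/620 nm), and IC50s came from 4-parameter fits.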

[2] = biological target: CSF1R (Homo sapiens (Human), UniProt P07333); assay: Inhibition of CSF1R kinase activity (HTRF KinEASE-TK); conditions: biochemical, HTRF KinEASE-TK
Sequence of CSF1R (P07333 20-972): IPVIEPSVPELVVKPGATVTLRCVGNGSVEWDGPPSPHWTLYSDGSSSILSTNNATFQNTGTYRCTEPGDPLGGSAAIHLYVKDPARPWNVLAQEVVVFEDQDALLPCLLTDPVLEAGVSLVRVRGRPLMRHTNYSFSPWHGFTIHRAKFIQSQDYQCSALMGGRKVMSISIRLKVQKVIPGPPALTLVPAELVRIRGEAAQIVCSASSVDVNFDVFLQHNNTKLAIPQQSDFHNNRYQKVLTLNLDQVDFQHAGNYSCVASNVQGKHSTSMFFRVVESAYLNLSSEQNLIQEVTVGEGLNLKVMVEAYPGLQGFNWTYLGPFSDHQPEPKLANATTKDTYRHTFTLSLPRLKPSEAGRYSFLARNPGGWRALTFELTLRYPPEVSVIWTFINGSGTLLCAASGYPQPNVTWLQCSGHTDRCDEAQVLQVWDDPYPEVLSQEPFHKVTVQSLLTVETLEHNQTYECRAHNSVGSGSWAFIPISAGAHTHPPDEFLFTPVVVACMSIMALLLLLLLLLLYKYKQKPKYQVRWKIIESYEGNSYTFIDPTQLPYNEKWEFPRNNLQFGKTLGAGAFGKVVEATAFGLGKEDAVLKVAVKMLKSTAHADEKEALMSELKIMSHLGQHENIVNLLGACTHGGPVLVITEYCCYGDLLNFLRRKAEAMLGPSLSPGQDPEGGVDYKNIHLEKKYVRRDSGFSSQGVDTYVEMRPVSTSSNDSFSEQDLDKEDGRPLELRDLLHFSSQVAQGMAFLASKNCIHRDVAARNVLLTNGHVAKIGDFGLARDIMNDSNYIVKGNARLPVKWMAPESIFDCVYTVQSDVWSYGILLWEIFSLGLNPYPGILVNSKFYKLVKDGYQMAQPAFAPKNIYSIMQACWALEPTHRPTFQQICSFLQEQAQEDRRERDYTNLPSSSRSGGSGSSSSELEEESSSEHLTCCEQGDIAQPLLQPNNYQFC
Method in brief: as §1

[3] = biological target: c-Kit (Homo sapiens (Human), UniProt P10721); assay: Inhibition of c-Kit kinase activity (HTRF KinEASE-TK); assay type: biochemical; conditions: biochemical, HTRF KinEASE-TK
Sequence of c-Kit (P10721 26-976): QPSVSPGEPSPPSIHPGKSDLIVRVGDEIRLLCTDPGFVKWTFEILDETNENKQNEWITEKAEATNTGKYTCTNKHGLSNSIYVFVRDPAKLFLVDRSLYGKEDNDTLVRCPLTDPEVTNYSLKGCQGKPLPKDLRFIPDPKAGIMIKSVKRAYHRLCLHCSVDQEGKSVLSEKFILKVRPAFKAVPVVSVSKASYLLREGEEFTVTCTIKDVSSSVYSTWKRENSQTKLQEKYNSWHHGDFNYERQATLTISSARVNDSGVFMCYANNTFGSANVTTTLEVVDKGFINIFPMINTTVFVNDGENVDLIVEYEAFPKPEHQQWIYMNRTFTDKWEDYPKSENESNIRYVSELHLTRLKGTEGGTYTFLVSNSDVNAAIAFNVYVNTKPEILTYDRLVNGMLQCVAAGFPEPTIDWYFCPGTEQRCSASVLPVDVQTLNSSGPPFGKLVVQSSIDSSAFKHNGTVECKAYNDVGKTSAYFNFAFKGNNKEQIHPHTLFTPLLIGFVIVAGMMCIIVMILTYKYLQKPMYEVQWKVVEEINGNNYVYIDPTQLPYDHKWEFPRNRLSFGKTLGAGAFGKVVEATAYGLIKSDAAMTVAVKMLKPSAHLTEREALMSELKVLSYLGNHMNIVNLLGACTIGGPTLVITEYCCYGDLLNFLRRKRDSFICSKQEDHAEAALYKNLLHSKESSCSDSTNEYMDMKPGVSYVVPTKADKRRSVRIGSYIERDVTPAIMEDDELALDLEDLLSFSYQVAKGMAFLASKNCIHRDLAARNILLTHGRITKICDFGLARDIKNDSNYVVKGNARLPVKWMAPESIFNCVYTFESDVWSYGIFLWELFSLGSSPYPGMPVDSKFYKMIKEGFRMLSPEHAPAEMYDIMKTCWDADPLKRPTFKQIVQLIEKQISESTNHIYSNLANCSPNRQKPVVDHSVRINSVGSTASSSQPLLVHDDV
Method in brief: as §1

[4] = system: Phospho-KIT (Y703) in M07e cells; assay: Phospho-KIT (Y703) cellular assay in M07e cells; assay type: cell-based; conditions: M-07e
Method in brief: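 Serum-starved M07e cells preincubated 50 min at 37° C with 11-point half-log compound titration, then stimulated 10 min with SCF at 90.9 ng/mL final. Fixed, permeabilized cells stained for phospho-KIT Y703 and read by flow cytometry (live-gated geometric mean); IC50 by 4-parameter fit normalized to DMSO and positive control.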

[5] = biological target: PDGFRβ (Homo sapiens (Human), UniProt P09619); assay: Inhibition of PDGFRβ kinase activity (HTRF KinEASE-TK); conditions: biochemical, HTRF KinEASE-TK
Sequence of PDGFRβ (P09619 33-1106): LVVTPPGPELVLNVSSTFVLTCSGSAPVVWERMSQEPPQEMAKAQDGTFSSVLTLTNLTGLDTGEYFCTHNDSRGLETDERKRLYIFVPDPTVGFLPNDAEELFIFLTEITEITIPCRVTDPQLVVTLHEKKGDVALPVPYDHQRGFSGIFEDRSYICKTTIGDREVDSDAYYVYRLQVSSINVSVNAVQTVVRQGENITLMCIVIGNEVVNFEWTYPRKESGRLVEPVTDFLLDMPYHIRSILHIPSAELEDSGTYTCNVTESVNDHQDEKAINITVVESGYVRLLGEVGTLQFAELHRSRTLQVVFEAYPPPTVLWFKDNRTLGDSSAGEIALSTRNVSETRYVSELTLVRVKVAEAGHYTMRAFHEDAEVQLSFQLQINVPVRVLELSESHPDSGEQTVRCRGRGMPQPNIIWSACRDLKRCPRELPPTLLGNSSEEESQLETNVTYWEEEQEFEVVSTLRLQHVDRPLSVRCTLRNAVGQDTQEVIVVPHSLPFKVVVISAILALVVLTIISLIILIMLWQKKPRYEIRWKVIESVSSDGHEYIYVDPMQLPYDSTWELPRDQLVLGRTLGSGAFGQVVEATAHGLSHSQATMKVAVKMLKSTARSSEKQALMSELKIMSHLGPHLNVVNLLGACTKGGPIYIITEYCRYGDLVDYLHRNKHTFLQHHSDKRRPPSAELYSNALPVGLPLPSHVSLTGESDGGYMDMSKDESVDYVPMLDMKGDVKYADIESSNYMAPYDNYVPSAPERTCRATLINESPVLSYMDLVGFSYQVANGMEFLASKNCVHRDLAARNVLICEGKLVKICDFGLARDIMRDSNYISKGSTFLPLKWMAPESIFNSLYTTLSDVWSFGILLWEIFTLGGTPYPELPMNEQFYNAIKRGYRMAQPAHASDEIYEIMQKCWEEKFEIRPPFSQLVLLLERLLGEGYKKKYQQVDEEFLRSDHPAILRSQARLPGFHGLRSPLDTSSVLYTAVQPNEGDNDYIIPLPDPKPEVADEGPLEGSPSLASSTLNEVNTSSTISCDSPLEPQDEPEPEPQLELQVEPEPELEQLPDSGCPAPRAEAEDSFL
Method in brief: as §1

[6] = Phospho-KIT (Y703), M07e cells, read-out: M07e Cell IC50
[7] = M07e cells, read-out: Phospho-KIT (Y703) cellular IC50

Sequence of PDGFRα (P16234 24-1089): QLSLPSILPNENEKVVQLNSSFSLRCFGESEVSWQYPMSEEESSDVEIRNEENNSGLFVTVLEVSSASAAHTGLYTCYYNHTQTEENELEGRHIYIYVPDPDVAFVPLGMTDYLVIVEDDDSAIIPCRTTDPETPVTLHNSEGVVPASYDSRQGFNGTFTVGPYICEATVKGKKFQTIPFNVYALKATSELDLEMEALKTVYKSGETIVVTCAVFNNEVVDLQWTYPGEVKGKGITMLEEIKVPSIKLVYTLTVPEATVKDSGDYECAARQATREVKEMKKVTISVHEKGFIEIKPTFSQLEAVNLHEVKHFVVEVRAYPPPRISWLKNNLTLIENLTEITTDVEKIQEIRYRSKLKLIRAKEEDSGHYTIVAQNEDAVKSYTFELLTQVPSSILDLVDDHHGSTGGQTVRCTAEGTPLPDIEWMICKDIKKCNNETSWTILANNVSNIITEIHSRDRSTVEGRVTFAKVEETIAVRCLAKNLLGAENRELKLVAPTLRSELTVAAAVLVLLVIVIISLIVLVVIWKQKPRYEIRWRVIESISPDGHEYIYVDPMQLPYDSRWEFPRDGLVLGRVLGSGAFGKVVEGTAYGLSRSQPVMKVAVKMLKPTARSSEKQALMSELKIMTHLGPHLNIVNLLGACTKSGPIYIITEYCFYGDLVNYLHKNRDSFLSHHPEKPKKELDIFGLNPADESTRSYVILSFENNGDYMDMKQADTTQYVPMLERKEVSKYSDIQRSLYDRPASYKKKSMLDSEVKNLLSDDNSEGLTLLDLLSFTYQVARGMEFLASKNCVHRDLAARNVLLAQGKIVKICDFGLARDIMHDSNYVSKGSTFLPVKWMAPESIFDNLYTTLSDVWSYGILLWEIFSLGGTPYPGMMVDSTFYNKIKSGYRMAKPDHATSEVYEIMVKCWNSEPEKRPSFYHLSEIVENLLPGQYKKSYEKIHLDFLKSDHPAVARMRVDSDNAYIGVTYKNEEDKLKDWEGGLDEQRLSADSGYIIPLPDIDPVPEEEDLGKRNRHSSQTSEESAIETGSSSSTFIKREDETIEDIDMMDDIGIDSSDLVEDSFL

SMILES | IC50 [1] [nM] | IC50 [2] [nM] | IC50 [3] [nM] | IC50 [5] [nM] | IC50 [4, 6] [nM] | IC50 [4, 7] [nM] | IC50 ([4]; read-out: M07e Cell IC50) [nM]
Cc1ncc(C(=O)Nc2cc(C(=O)Nc3ccc(CC(F)(F)F)cn3)c(Cl)cc2C)s1 [Example 99, N-[4-chloro-2-methyl-5-[[5-(2,2,2-trifluoroethyl)pyridin-2-yl]carbamoyl]phenyl]-2-methyl-1,3-thiazole-5-carboxamide] | > 1000 | > 1000 | 100 to 1000 | > 1000 | – | – | 100 to 1000
Cc1ncc(C(=O)Nc2cc(C(=O)Nc3ccnc(CC4CC4)n3)c(F)cc2C)s1 [Example 100, N-[5-[[2-(cyclopropylmethyl)pyrimidin-4-yl]carbamoyl]-4-fluoro-2-methylphenyl]-2-methyl-1,3-thiazole-5-carboxamide] | > 1000 | > 1000 | 100 to 1000 | > 1000 | 100 to 1000 | – | –
Cc1ncc(C(=O)Nc2cc(C(=O)N[C@@H]3C[C@@H]3c3ccccc3Cl)c(F)cc2C)s1 [Example 101, N-[5-[[(1R,2R)-2-(2-chlorophenyl)cyclopropyl]carbamoyl]-4-fluoro-2-methylphenyl]-2-methyl-1,3-thiazole-5-carboxamide] | < 100 | 100 to 1000 | < 100 | 100 to 1000 | < 100 | – | –
CCc1ccc(NC(=O)c2cc(NC(=O)c3cnc(N)s3)c(F)cc2F)nc1 [Example 214, 2-Amino-N-[5-[(5-ethylpyridin-2-yl)carbamoyl]-2,4-difluorophenyl]-1,3-thiazole-5-carboxamide] | > 1000 | > 1000 | < 100 | > 1000 | < 100 | – | –
Cc1cc(F)c(C(=O)Nc2ccc(F)cc2)cc1NC(=O)c1cnc(N)s1 [Example 233, 2-Amino-N-[4-fluoro-5-[(4-fluorophenyl)carbamoyl]-2-methylphenyl]-1,3-thiazole-5-carboxamide] | > 1000 | > 1000 | < 100 | > 1000 | < 100 | – | –
Cc1cc(F)c(C(=O)Nc2ccc(COC(F)F)cn2)cc1NC(=O)c1cnc(N)s1 [Example 254, 2-Amino-N-[5-[[5-(difluoromethoxymethyl)pyridin-2-yl]carbamoyl]-4-fluoro-2-methylphenyl]-1,3-thiazole-5-carboxamide] | > 1000 | 100 to 1000 | < 100 | < 100 | < 100 | – | –
Cc1ncc(C(=O)Nc2cc(C(=O)NCc3ccc(F)cc3F)c(F)cc2C)s1 [Example 263, N-[5-[(2,4-difluorophenyl)methylcarbamoyl]-4-fluoro-2-methylphenyl]-2-methyl-1,3-thiazole-5-carboxamide] | > 1000 | > 1000 | < 100 | > 1000 | – | < 100 | –
Cc1ncc(C(=O)Nc2cc(C(=O)NCc3cc(F)cc(F)c3)c(F)cc2C)s1 [Example 264, N-[5-[(3,5-difluorophenyl)methylcarbamoyl]-4-fluoro-2-methylphenyl]-2-methyl-1,3-thiazole-5-carboxamide] | > 1000 | > 1000 | < 100 | > 1000 | – | < 100 | –
Cc1ncc(C(=O)Nc2cc(C(=O)NCc3cccc(F)c3F)c(F)cc2C)s1 [Example 265, N-[5-[(2,3-difluorophenyl)methylcarbamoyl]-4-fluoro-2-methylphenyl]-2-methyl-1,3-thiazole-5-carboxamide] | > 1000 | > 1000 | < 100 | > 1000 | – | < 100 | –
Cc1ncc(C(=O)Nc2cc(C(=O)NCc3ccc(F)c(F)c3)c(F)cc2C)s1 [Example 266, N-[5-[(3,4-difluorophenyl)methylcarbamoyl]-4-fluoro-2-methylphenyl]-2-methyl-1,3-thiazole-5-carboxamide] | > 1000 | > 1000 | < 100 | > 1000 | – | < 100 | –

Further lines, with some results ahead:

IC50 [1] [nM] | IC50 [2] [nM] | IC50 [3] [nM] | IC50 [5] [nM] | IC50 [4, 6] [nM] | IC50 [4, 7] [nM] | SMILES | IC50 ([4]; read-out: M07e Cell IC50) [nM]
> 1000 | > 1000 | < 100 | 100 to 1000 | < 100 | – | Cc1cc(F)c(C(=O)Nc2ccc(O[C@@H]3CCOC3)cn2)cc1NC(=O)c1cnc(N)s1 [Example 198, 2-Amino-N-[4-fluoro-2-methyl-5-[[5-[(3R)-oxolan-3-yl]oxypyridin-2-yl]carbamoyl]phenyl]-1,3-thiazole-5-carboxamide] | –
> 1000 | 100 to 1000 | < 100 | 100 to 1000 | < 100 | – | Nc1ncc(C(=O)Nc2cc(C(=O)Nc3ccc(C4CC4)nn3)c(F)cc2Cl)s1 [Example 201, 2-Amino-N-[2-chloro-5-[(6-cyclopropylpyridazin-3-yl)carbamoyl]-4-fluorophenyl]-1,3-thiazole-5-carboxamide] | –
> 1000 | 100 to 1000 | < 100 | > 1000 | < 100 | – | CC(C)Oc1ccc(NC(=O)c2cc(NC(=O)c3cnc(N)s3)c(Cl)cc2F)nc1 [Example 207, 2-Amino-N-[2-chloro-4-fluoro-5-[(5-propan-2-yloxypyridin-2-yl)carbamoyl]phenyl]-1,3-thiazole-5-carboxamide] | –
> 1000 | > 1000 | < 100 | > 1000 | – | < 100 | Cc1ncc(C(=O)Nc2cc(C(=O)NCc3ccc(F)cc3)c(F)cc2C)s1 [Example 262, N-[4-fluoro-5-[(4-fluorophenyl)methylcarbamoyl]-2-methylphenyl]-2-methyl-1,3-thiazole-5-carboxamide] | –
> 1000 | > 1000 | 100 to 1000 | > 1000 | – | < 100 | Cc1ncc(C(=O)Nc2cc(C(=O)NCc3ccc(OC(F)(F)F)cc3)c(F)cc2C)s1 [Example 267, N-[4-fluoro-2-methyl-5-[[4-(trifluoromethoxy)phenyl]methylcarbamoyl]phenyl]-2-methyl-1,3-thiazole-5-carboxamide] | –
> 1000 | > 1000 | < 100 | > 1000 | – | < 100 | Cc1ncc(C(=O)Nc2cc(C(=O)NCc3ccc(C(F)(F)F)cc3)c(F)cc2C)s1 [Example 268, N-[4-fluoro-2-methyl-5-[[4-(trifluoromethyl)phenyl]methylcarbamoyl]phenyl]-2-methyl-1,3-thiazole-5-carboxamide] | –
> 1000 | > 1000 | 100 to 1000 | > 1000 | – | < 100 | Cc1ncc(C(=O)Nc2cc(C(=O)NCc3ccc(OC(F)(F)F)c(F)c3)c(F)cc2C)s1 [Example 269, N-[4-fluoro-5-[[3-fluoro-4-(trifluoromethoxy)phenyl]methylcarbamoyl]-2-methylphenyl]-2-methyl-1,3-thiazole-5-carboxamide] | –
> 1000 | > 1000 | 100 to 1000 | > 1000 | – | 100 to 1000 | Cc1ncc(C(=O)Nc2cc(C(=O)NCc3ccc(OC(F)(F)F)cc3F)c(F)cc2C)s1 [Example 270] | –
